Structures can show the parent of a compound that is named as a salt. A value given as a limit tells only on which side of the number the result lay.

Usually viability stands for a read-out of living cells in per cent, often relative to untreated cells.

The experiment concerns Malassezia globosa. Kind of experiment: Anti-Malassezia test (viability of Malassezia, WST microbial viability assay). To be noted: for viability at 1 µM / viability at 10 µM / viability at 100 µM: Malassezia globosa, 22 h, read-out: viability (%) of Malassezia, relative to negative control taken as 100; for anti-Malassezia effect compared with the positive control drugs: versus streptomycin sulfate, amorolfine hydrochloride, itraconazole; for concentration required to inhibit the viability of Malassezia by 20%: 20% inhibition of viability. On the procedure:
The Malassezia strain was cultured in CHROMagar Malassezia/Candida prepared medium (Kanto Chemical Co., Ltd.).
In 1 L of distilled water were dissolved 10 g of D-glucose, 5 g of peptone, 3 g of yeast extract, 3 g of malt extract and 0.1 g of penicillin. The resulting solution was filtered and used for the experiments.
A suspension of Malassezia was prepared to an optical density equivalent to McFarland's Standard No. 3 and 0.5 mL of the suspension was added to tubes. Each of the prepared samples, oleic acid and the YM medium were mixed into the tubes, and Malassezia was cultured at 37° C. for 22 hours. The fungi were stained using Microbial viability assay kit-WST (Dojindo Laboratories) and cultured at 37° C. for 2 hours. The absorbance was measured to calculate the viability of Malassezia. The results are expressed as a percentage (%) relative to a negative control (“control”: with no addition of test substances) taken as 100. A lower percentage indicates a stronger anti-Malassezia effect. The values obtained in the experiments were expressed as the mean±S.E. The significance of the difference in the means between the test substance administration groups and the negative control group was tested by the Dunnett's test. The significance level was set at 5% or 1%.

As for `CC(=O)c1c(O)cc(O[C@@H]2OC(CO)[C@@H](O)C(O)C2O)c(O[C@@H]2OC(CO)[C@@H](O)C(O)C2O)c1O` (some centres unmarked) [Compound 1, inermioside A], the viability at 1 µM is 93.6%, the viability at 10 µM worked out at 81.3%, the viability at 100 µM was found to be 76.3% and the “anti-Malassezia effect compared with the positive control drugs” value was “comparable to or higher than that of the positive control drugs”.
In the same order, the values of `C[C@@H]1O[C@@H](OC[C@H]2O[C@@H](Oc3cc(O)c4c(=O)cc(-c5ccc(O)cc5)oc4c3)[C@H](O)[C@@H](O)[C@@H]2O)[C@H](O)[C@H](O)[C@H]1O` [Compound 2, apigenin 7-O-α-L-rhamnopyranosyl-(1→6)-β-D-glucopyranoside] are 83.6%, 81.4%, 61.5% and “comparable to or higher than that of the positive control drugs”.
On to `CCC(C)n1ncn(-c2ccc(N3CCN(c4ccc(OCC5COC(Cn6cncn6)(c6ccc(Cl)cc6Cl)O5)cc4)CC3)cc2)c1=O` (centres unmarked) [Itraconazole, itraconazole, reference compound], for which the “concentration required to inhibit the viability of Malassezia by 20%” value is given as “about 10 μM”.
For `[H]/N=C(/N)N[C@H]1[C@H](O)[C@@H](O)[C@H](O[C@@H]2O[C@@H](C)[C@](O)(C=O)[C@H]2O[C@@H]2O[C@@H](CO)[C@H](O)[C@@H](O)[C@@H]2NC)[C@@H](N/C(N)=N\[H])[C@@H]1O` [streptomycin sulfate, reference compound], the “concentration required to inhibit the viability of Malassezia by 20%” value is at least 137 µM and the viability at 10 µM amounted to 106%.
